Key:
[1] = target: YKL-40 (YKL-40: heparan sulfate interaction) (Homo sapiens (Human), UniProt P36222); experiment: YKL-40:HS assay, heparan sulfate interference AlphaScreen; conditions: read-out: YKL-40:HS, IC50/max % inh (max % inh)
human YKL-40 = human YKL-40 (Homo sapiens (Human), UniProt P36222); experiment: Human YKL-40 direct binding assay based on MicroScale Thermophoresis (MST); conditions: by MST and competitive AlphaScreen for chitin binding site; depends on ligand length, sulphation, Mg2+
human YKL-40, sequence (P36222 22-383): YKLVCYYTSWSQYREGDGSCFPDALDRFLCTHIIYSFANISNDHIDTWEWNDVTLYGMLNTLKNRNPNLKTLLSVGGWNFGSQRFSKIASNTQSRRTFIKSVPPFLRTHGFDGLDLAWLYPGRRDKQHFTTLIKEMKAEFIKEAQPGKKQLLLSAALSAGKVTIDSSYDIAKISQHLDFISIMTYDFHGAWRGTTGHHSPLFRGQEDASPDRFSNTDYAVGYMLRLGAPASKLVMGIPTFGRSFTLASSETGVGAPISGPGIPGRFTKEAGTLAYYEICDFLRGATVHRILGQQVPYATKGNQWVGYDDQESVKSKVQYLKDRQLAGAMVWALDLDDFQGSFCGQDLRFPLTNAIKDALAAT

YKL-40 (YKL-40: heparan sulfate interaction), sequence (P36222 22-383): as above

inhibition [1]	binding affinity to YKL-40 (in words) (human YKL-40)	Compound
27%	–	CNC(=O)CN1C[C@H](Cc2ccc(Cl)cc2)N(C2CCN(c3ccccn3)CC2)C[C@@H]1C(C)C [Compound 106, 2-((2S,5S)-5-(4-chlorobenzyl)-2-isopropyl-4-(1-(pyridin-2-yl)piperidin-4-yl)piperazin-1-yl)-N-methylacetamide 2,2,2-trifluoroacetate]
30%	–	Cc1ccnc(N2CCC(N3C[C@H](C)OC[C@@H]3Cc3ccc(Cl)cc3)CC2)c1F [Compound 112, (2S,5S)-5-(4-chlorobenzyl)-4-(1-(3-fluoro-4-methylpyridin-2-yl)piperidin-4-yl)-2-methylmorpholine 2,2,2-trifluoroacetate]
53%	–	Cc1nc(N2CCC(N3C[C@H](C)OC[C@@H]3Cc3ccc(Cl)cc3)CC2)sc1C [Compound 183, (2S,5S)-5-(4-chlorobenzyl)-4-(1-(4,5-dimethylthiazol-2-yl)piperidin-4-yl)-2-methylmorpholine 2,2,2-trifluoroacetate]
36%	–	Cc1cnc(N2CCC(N3C[C@H](C)OC[C@@H]3Cc3ccc(Cl)cc3)CC2)s1 [Compound 185, (2S,5S)-5-(4-chlorobenzyl)-2-methyl-4-(1-(5-methylthiazol-2-yl)piperidin-4-yl)morpholine 2,2,2-trifluoroacetate]
–	high nM affinity	heparin sodium salt
